According to patent US12403128B2, “Compositions and methods for blocking sodium channels” (University of Virginia Patent Foundation, priority 2017, dated 2025):
Where a name gives a salt, the structure may show the parent alone.

Target: Nav1.6 (Homo sapiens, UniProt Q9UQD0)
Assay: % block of Nav1.6 at 100 μM and IC50 (NaV1.6)
Assay type: cell-based
Details: for inhibition at 100 µM: 100 μM compound; for IC50: NaV1.6, Table 2, MV1060-MV1091, unit inferred, read-out: IC50
Procedure: Evaluation of Compounds for % Block of Nav1.6 at 100 μM
Compounds of the present invention were tested in an assay for % block of Nav1.6 at a concentration of 100 μM compound. Table 1 also indicates the melting point ranges for some compounds.
Some such compounds correspond to a compound of Formula III, wherein R9 is substituted with a halogen, a nitro or a CF3 group. In comparing MV1089, MV1090 and MV1091, it is shown that compounds of Formula III where R3 is H result in higher % block than when R3 is substituted. e.g., by OCH3. In comparing MV1066, MV1084, MV1085, MV1086, MV1087 and MV1088, it is shown that compounds of Formula III where R9 is halogen, a nitro or a CF3 group result in higher % block than when R9 is OCH3, COOH or CH3.

Chain of Nav1.6 (Q9UQD0 whole entry): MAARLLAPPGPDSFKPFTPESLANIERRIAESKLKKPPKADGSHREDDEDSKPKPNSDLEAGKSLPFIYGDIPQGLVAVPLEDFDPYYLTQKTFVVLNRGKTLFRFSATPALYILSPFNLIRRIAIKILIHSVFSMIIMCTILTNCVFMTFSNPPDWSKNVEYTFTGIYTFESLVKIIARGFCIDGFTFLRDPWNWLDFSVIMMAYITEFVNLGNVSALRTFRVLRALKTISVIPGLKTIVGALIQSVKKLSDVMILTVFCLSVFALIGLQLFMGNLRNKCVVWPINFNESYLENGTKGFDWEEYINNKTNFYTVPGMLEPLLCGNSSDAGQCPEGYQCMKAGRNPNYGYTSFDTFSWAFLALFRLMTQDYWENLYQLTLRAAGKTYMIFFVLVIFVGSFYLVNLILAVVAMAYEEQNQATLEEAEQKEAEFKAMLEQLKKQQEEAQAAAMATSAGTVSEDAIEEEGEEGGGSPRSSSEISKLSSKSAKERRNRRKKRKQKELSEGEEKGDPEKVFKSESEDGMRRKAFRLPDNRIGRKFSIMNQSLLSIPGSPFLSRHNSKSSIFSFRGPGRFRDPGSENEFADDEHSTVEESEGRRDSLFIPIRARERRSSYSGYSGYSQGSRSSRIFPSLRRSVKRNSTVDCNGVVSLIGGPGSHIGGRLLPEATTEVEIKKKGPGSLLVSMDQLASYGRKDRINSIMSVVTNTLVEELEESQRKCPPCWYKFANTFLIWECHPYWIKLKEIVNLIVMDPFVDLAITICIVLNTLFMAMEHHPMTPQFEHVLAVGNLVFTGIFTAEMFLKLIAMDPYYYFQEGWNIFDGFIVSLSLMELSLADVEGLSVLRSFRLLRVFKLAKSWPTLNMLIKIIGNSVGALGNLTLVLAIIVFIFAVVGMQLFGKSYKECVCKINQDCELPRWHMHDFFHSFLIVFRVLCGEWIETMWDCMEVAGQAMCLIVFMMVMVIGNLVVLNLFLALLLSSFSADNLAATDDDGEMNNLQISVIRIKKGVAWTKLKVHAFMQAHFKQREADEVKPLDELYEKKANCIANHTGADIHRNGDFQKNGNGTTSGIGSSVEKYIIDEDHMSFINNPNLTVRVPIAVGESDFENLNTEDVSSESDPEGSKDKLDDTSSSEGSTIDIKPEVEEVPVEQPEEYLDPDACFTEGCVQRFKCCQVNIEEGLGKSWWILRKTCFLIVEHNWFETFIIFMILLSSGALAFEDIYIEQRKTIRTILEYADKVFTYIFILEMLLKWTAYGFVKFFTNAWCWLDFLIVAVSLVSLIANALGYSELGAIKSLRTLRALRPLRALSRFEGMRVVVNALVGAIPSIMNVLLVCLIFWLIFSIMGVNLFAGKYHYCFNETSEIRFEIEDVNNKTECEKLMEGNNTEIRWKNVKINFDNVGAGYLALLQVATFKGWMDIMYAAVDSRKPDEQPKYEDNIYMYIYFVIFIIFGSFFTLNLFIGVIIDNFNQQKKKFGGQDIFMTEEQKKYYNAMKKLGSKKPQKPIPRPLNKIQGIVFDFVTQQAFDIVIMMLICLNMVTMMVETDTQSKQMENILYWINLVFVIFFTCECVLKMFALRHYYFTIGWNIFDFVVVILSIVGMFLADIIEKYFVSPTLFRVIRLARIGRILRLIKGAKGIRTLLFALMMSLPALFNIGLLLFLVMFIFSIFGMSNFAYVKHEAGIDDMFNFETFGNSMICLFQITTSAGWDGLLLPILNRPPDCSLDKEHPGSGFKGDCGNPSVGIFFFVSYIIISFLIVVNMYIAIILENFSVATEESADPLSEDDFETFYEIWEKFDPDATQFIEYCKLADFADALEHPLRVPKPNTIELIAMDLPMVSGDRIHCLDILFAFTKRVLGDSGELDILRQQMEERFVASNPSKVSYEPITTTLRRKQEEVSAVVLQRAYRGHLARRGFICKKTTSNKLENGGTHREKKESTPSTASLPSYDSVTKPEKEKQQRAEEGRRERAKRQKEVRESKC

SMILES	inhibition at 100 µM	IC50
FC(F)(F)c1ccc2nc(-c3ccccc3)[nH]c2c1 [MV1086, 6-trifluoromethyl-2-phenyl-1H-1,3-benzodiazole]	90%	24.7 µM
O=[N+]([O-])c1cccc(-c2nc3ccccc3[nH]2)c1 [MV1071, 2-(3-nitrophenyl)-1H-1,3-benzodiazole]	30%	> 100 µM
Cc1ccc2nc(-c3ccccc3)[nH]c2c1 [MV1088, 6-methyl-2-phenyl-1H-1,3-benzodiazole]	55%	
O=C(Nc1cccc(-c2c[nH]c(-c3ccccc3)n2)c1)c1ccccc1 [MV1307, N-[3-(2-PHENYL-1H-IMIDAZOL-4-YL)-PHENYL]-BENZAMIDE HYDROCHLORIDE]	25%	
O=C(Nc1cccc(-c2c[nH]c(-c3ccccc3)n2)c1)c1ccc(Cl)cc1 [MV1311, 4-CHLORO-N-[3-(2-PHENYL-1H-IMIDAZOL-4-YL)-PHENYL]-BENZAMIDE HYDROCHLORIDE]	90%	
Clc1ccccc1-c1nc2ccccc2[nH]1 [MV1068, 2-(2-chlorophenyl)-1H-1,3-benzodiazole]	75%	41.6 µM
COc1ccc(-c2nc3cc(Cl)ccc3[nH]2)cc1 [MV1091, 6-chloro-2-(4-methoxyphenyl)-1H-1,3-benzodiazole]	0%	> 100 µM
COc1ccc(-c2nc(-c3cccc(NC(=O)c4ccccc4)c3)c[nH]2)cc1 [MV1308, N-(3-[2-(4-METHOXY-PHENYL)-1H-IMIDAZOL-4-YL]-PHENYL)-BENZAMIDE HYDROCHLORIDE]	75%	
O=[N+]([O-])c1ccccc1-c1nc2ccccc2[nH]1 [MV1070, 2-(2-nitrophenyl)-1H-1,3-benzodiazole]	20%	> 100 µM
O=C(Nc1ccc(-c2c[nH]c(-c3ccccc3)n2)cc1)c1ccc(Cl)cc1 [MV1305, 4-CHLORO-N-[4-(2-PHENYL-1H-IMIDAZOL-4-YL)-PHENYL]-BENZAMIDE HYDROCHLORIDE]	50%	
COc1cccc(-c2ncc[nH]2)c1 [MV1351, 2-(3-METHOXY-PHENYL)-1H-IMIDAZOLE OXALATE]	25%	
c1ccc(-c2nc3ccccc3[nH]2)cc1 [MV1060, 2-Phenyl-benzimidazole]	30%	> 100 µM
Clc1cccc(-c2nc3ccccc3[nH]2)c1 [MV1069, 2-(3-chlorophenyl)-1H-1,3-benzodiazole]	65%	37 µM
COc1ccc(-c2nc(-c3ccc(NC(=O)c4ccc(Cl)cc4)cc3)c[nH]2)cc1 [MV1306, 4-CHLORO-N-(4-[2-(4-METHOXY-PHENYL)-1H-IMIDAZOL-4-YL]-PHENYL)-BENZAMIDE HYDROCHLORIDE]	10%	
Cc1ccc(-c2nc3ccccc3[nH]2)cc1 [MV1083, 2-(4-methylphenyl)-1H-1,3-benzodiazole]	30%	> 100 µM
O=C(O)c1ccc2nc(-c3ccccc3)[nH]c2c1 [MV1087, 2-phenyl-1H-1,3-benzodiazole-6-carboxylic acid]	0%	> 100 µM
COc1ccccc1-c1nc2ccccc2[nH]1 [MV1073, 2-(2-methoxyphenyl)-1H-1,3-benzodiazole]	40%	> 100 µM
Cc1ccccc1-c1nc2ccccc2[nH]1 [MV1081, 2-(2-methylphenyl)-1H-1,3-benzodiazole]	25%	> 100 µM

SMILES	inhibition at 100 µM	IC50
O=[N+]([O-])c1ccc(-c2nc3ccccc3[nH]2)cc1 [MV1072, 2-(4-nitrophenyl)-1H-1,3-benzodiazole]	20%	> 100 µM
FC(F)(F)c1ccccc1-c1nc2ccccc2[nH]1 [MV1075, 2-(2-trifluoromethyl-phenyl)-1H-1,3-benzodiazole]	20%	> 100 µM
Clc1ccc(-c2nc3ccccc3[nH]2)cc1 [MV1061, 2-(4-chlorophenyl)-1H-1,3-benzodiazole]	45%	
COc1cccc(-c2nc3ccccc3[nH]2)c1 [MV1074, 2-(3-methoxyphenyl)-1H-1,3-benzodiazole]	40%	> 100 µM
O=C(O)c1cccc(-c2nc3ccccc3[nH]2)c1 [MV1079, 3-(1H-1,3-benzodiazol-2-yl)benzoic acid]	15%	> 100 µM
COc1ccc(-c2nc(-c3cccc(NC(=O)c4ccc(Cl)cc4)c3)c[nH]2)cc1 [MV1312, 4-CHLORO-N-(3-[2-(4-METHOXY-PHENYL)-1H-IMIDAZOL-4-YL]-PHENYL)-BENZAMIDE HYDROCHLORIDE]	85%	
FC(F)(F)c1cccc(-c2nc3ccccc3[nH]2)c1 [MV1076, 2-(3-trifluoromethyl-phenyl)-1H-1,3-benzodiazole]	60%	
COc1ccccc1-c1nc2cc(Cl)ccc2[nH]1 [MV1089, 6-chloro-2-(2-methoxyphenyl]-1H-1,3-benzodiazole]	90%	40.1 µM
COc1ccc(C(=O)Nc2ccc(-c3c[nH]c(-c4ccc(OC)cc4)n3)cc2)cc1 [MV1304, 4-METHOXY-N-(4-[2-(4-METHOXY-PHENYL)-1H-IMIDAZOL-4-YL]-PHENYL)-BENZAMIDE HYDROCHLORIDE]	40%	
O=C(O)c1ccccc1-c1nc2ccccc2[nH]1 [MV1078, 2-(1H-1,3-benzodiazol-2-yl)benzoic acid]	5%	> 100 µM
O=C(O)c1ccc(-c2nc3ccccc3[nH]2)cc1 [MV1080, 4-(1H-1,3-benzodiazol-2-yl)benzoic acid]	10%	> 100 µM
COc1ccc(C(=O)Nc2cccc(-c3c[nH]c(-c4ccccc4)n3)c2)cc1 [MV1309, 4-METHOXY-N-[3-[2-PHENYL-1H-IMIDAZOL-4-YL]-PHENYL]-BENZAMIDE HYDROCHLORIDE]	75%	
Cc1cccc(-c2nc3ccccc3[nH]2)c1 [MV1082, 2-(3-methylphenyl)-1H-1,3-benzodiazole]	65%	
COc1ccc(-c2ncc[nH]2)cc1 [MV1350, 2-(4-METHOXY-PHENYL)-1H-IMIDAZOLE OXALATE]	25%	
COc1ccc(C(=O)Nc2cccc(-c3c[nH]c(-c4ccc(OC)cc4)n3)c2)cc1 [MV1310, 4-METHOXY-N-(3-[2-(4-METHOXY-PHENYL)-1H-IMIDAZOL-A-YL]-PHENYL)-BENZAMIDE HYDROCHLORIDE]	60%	
COc1ccc(C(=O)Nc2ccc(-c3c[nH]c(-c4ccccc4)n3)cc2)cc1 [MV1303, 4-METHOXY-N-[4-[2-PHENYL-1H-IMIDAZOL-4-YL]-PHENYL]-BENZAMIDE HYDROCHLORIDE]	0%	
O=C(Nc1ccc(-c2c[nH]c(-c3ccccc3)n2)cc1)c1ccccc1 [MV1301, N-(4-[2-PHENYL-1H-IMIDAZOL-4-YL)-PHENYL]-BENZAMIDE HYDROCHLORIDE]	0%	
COc1ccccc1-c1ncc[nH]1 [MV1352, 2-(2-METHOXY-PHENYL)-1H-IMIDAZOLE OXALATE]	30%	

Continued, values first:

inhibition at 100 µM	IC50	SMILES
100%		CCCc1nc(-c2ccc(Cl)cc2)[nH]c1C [MV1371, 2-(4-CHLORO-PHENYL)-5-METHYL-4-PROPYL-1H-IMIDAZOLE OXALATE]
80%		COc1cccc(-c2nc(C)c(C)[nH]2)c1 [MV1363, 2-(3-METHOXY-PHENYL)-4,5-DIMETHYL-1H-IMIDAZOLE OXALATE]
0%		Cc1cnc(-c2ccccc2Cl)[nH]1 [MV1361, 2-(2-CHLORO-PHENYL)-5-METHYL-1H-IMIDAZOLE OXALATE]
75%		Cc1cnc(-c2ccc(Cl)cc2)[nH]1 [MV1359, 2-(4-CHLORO-PHENYL)-5-METHYL-1H-IMIDAZOLE OXALATE]
90%		COc1cccc(-c2ncc(C)[nH]2)c1 [MV1357, 2-(3-METHOXY PHENYL)-5-METHYL-1H-IMIDAZOLE OXALATE]
100%		CCCc1nc(-c2cccc(OC)c2)[nH]c1C [MV1369, 2-(3-METHOXY-PHENYL)-5-METHYL-4-PROPYL-1H-IMIDAZOLE OXALATE]
0%		Clc1ccccc1-c1ncc[nH]1 [MV1355, 2-(2-CHLORO-PHENYL)-1H-IMIDAZOLE OXALATE]
65%		COc1ccc(-c2ncc(C)[nH]2)cc1 [MV1356, 2-(4-METHOXY-PHENYL)-5-METHYL-1H-IMIDAZOLE OXALATE]
70%		COc1ccccc1-c1nc(C)c(C)[nH]1 [MV1364, 2-(2-METHOXY-PHENYL)-4,5-DIMETHYL-1H-IMIDAZOLE OXALATE]
45%		Cc1nc(-c2ccccc2Cl)[nH]c1C [MV1367, 2-(2-CHLORO-PHENYL)-4,5-DIMETHYL-1H-IMIDAZOLE OXALATE]
70%		Cc1cnc(-c2cccc(Cl)c2)[nH]1 [MV1360, 2-(3-CHLORO-PHENYL)-5-METHYL-1H-IMIDAZOLE OXALATE]
85%		Cc1nc(-c2ccc(Cl)cc2)[nH]c1C [MV1365, 2-(4-CHLORO-PHENYL)-4,5-DIMETHYL-1H-IMIDAZOLE OXALATE]
85%		COc1ccc(-c2nc(C)c(C)[nH]2)cc1 [MV1362, 2-(4-METHOXY-PHENYL)-4,5-DIMETHYL-1H-IMIDAZOLE OXALATE]
100%		CCCc1nc(-c2cccc(Cl)c2)[nH]c1C [MV1372, 2-(3-CHLORO-PHENYL)-5-METHYL-4-PROPYL-1H-IMIDAZOLE OXALATE]
50%		COc1ccccc1-c1ncc(C)[nH]1 [MV1358, 2-(2-METHOXY-PHENYL)-5-METHYL-1H-IMIDAZOLE OXALATE]
95%		Cc1nc(-c2cccc(Cl)c2)[nH]c1C [MV1366, 2-(3-CHLORO-PHENYL)-4,5-DIMETHYL-1H-IMIDAZOLE OXALATE]
